Assay results: ChEMBL document CHEMBL1127239, “Novel cytotoxic annonaceous acetogenins: (2,4-cis and trans)-bulladecinones from annona bullata (annonaceae)” (Bioorg Med Chem Lett, 1994)
In brackets after ≈: the same amount, converted by molar mass.

Legend:
HT-29 = experiment: Compound was tested for cytotoxic activity against human colon adenocarcinoma (HT-29); type: functional; conditions: for EC50: Homo sapiens, HT-29, read-out: ED50 (the source's name)
Artemia = experiment: (§1) Compound was tested for lethal concentration in Brine shrimp lethality test (BST); type: organism-based; conditions: in vivo
MCF7 = experiment: Compound was tested for cytotoxic activity against human breast carcinoma (MCF-7); type: functional; conditions: for EC50: Homo sapiens, MCF7, read-out: ED50 (the source's name)
A549 = experiment: Compound was tested for cytotoxic activity against human lung carcinoma (A-549); type: functional; conditions: for EC50: Homo sapiens, A549, read-out: ED50 (the source's name)
[1] = as §1; type: organism-based; conditions: artemia, in vivo

SMILES	ED50 (HT-29) [ng/mL]	LC50 (Artemia) [ng/mL]	ED50 (MCF7) [ng/mL]	ED50 (A549) [ng/mL]	EC50 (HT-29) [ng/mL]	LC50 [1] [ng/mL]	EC50 (MCF7) [ng/mL]	EC50 (A549) [ng/mL]
CCCCCCCCCCC(O)C(O)CCC(O)C1CCC(C2CCC(CCCCCCCC3CC(CC(C)=O)C(=O)O3)O2)O1 (trans isomer)	229 (≈ 358 nM)	137 (≈ 214 nM)	1.07 (≈ 1.67 nM)	0.0337 (≈ 0.0527 nM)	–	–	–	–
CCCCCCCCCCC(O)C(O)CCC(O)C1CCC(C2CCC(CCCCCCCC3CC(CC(C)=O)C(=O)O3)O2)O1 (stereo in doubt)	–	–	–	–	229 (≈ 358 nM)	137 (≈ 214 nM)	1.07 (≈ 1.67 nM)	0.0337 (≈ 0.0527 nM)
COc1cccc2c1C(=O)c1c(O)c3c(c(O)c1C2=O)C[C@@](O)(C(=O)CO)C[C@@H]3O[C@H]1C[C@H](N)[C@H](O)[C@H](C)O1 [DOXORUBICIN]	–	80 (≈ 147 nM)	–	–	0.558 (≈ 1.03 nM)	–	13.8 (≈ 25.4 nM)	0.153 (≈ 0.281 nM)
